According to patent publication US11352382B2, “Mito-lonidamine, compositions and methods of use” (THE MEDICAL COLLEGE OF WISCONSIN, INC., priority 2018, dated 2022):

Assays:
[1] = test system: luciferase-expressing H2030BrM3 cells in Nod/Scid mice; assay: Lung cancer brain metastasis model, intra-cardiac injection, bioluminescence; type: in vivo, mouse; conditions: 7.5 μmol/kg oral gavage
Experimental: Mito-LON inhibits lung cancer brain metastasis in Nod/Scid mice. Preliminary experiments assessed the effect of Mito-LON, and its enhanced potency vs. LON, on brain metastasis in Nod/Scid mice in which luciferase-expressing H2030BrM3 cells were injected via intra-cardiac insertion. To ensure the accuracy of injection and precision in the quantity of the cells injected, we used high-resolution echocardiography to guide the needle into the left ventricle. In FIG. 25A, the needle's positioning is clearly discernable. Mice were imaged for firefly luciferase expression (150 μg/g D-luciferin) using an IVIS 100 imaging system at multiple time points post-injection. Regions of interest were defined manually over the brain, and LivingImage and Igor image analysis software were used to determine total photon flux. One day after engrafting the H2030BrM3 cells in arterial circulation (FIG. 19A), LON or Mito-LON (7.5 μmol/kg each) were administered by oral gavage, tumor growth was monitored by bioluminescence, and ex vivo GFP expression and H&E staining were determined at the end point. H2030BrM3 cells rapidly colonized in the cerebrum and cerebellum (FIG. 25B).

[2] = test system: PC9BrM3 and H2030BrM3 brain metastasis lung cancer cell lines; assay: Boyden chamber (transwell) invasion assay; type: cell-based; conditions: Homo sapiens, H2030-BrM3, read-out: inhibitory effect on invasion when used alone
Excerpt: Mito-LON inhibits migration and invasion of brain metastatic human lung cancer cells. To investigate the potential of Mito-LON and LON for lung cancer metastasis, we first tested its effects in vitro via the Boyden chamber invasion assay using PC9BrM3 and H2030BrM3 brain metastasis lung cancer cell lines.

[3] = test system: H2030BrM3 cells; assay: Cell proliferation, IncuCyte Live-Cell Imaging Analyzer (cell confluence); type: cell-based; conditions: Homo sapiens, H2030-BrM3, read-out: IC50, cell proliferation
Experimental: In contrast, Mito-LON (1.2-2.7 μM) targets mitochondrial complexes I and II (FIG. 9); its mitochondrial effects are supported by the compartment-selective oxidation of mitochondrial Prx3 (FIG. 13). The anti-proliferative effects of Mito-LON and LON were compared in H2030BrM3 cells.

[4] = test system: H2030 and H2030BrM3 cells; assay: Apoptosis markers in treated cells; type: cell-based, human
Excerpt: Mito-LON's effects on inducing apoptosis in human lung cancer cell lines and their lung-derived brain metastatic lines. Results from Mito-LON-treated H2030 and H2030BrM3 cells (FIG. 20) supports cell death induction is mainly via autophagy rather than caspase-dependent apoptosis.

[5] = test system: mitochondrial Complex I; assay: Mitochondrial complex I activity (OCR) in permeabilized H2030BrM3 cells after 24 h pretreatment; type: cell-based, human
Excerpt: (§1) LON and Mito-LON inhibit mitochondrial complex I activity. Mito-LON inhibited cellular respiration (oxygen consumption rate, OCR) at >100-fold lower concentration than LON in intact lung cancer cells (FIG. 9). Both basal respiration and the response to mitochondrial stressors (oligomycin, dinitrophenol) were diminished by Mito-LON (not shown). To investigate the mechanism of mitochondrial inhibition, we measured the activity of mitochondrial complexes in H2030BrM3 cells (NSCLC cell line). The cell membrane was permeabilized, and OCR was measured upon addition of substrates and inhibitors of mitochondrial complexes I-IV (FIG. 9A). These studies established the optimal use of permeabilized cells for complex activity assays.^54 Next, cells were pretreated with LON and Mito-LON for 24 h and experiments performed as in FIG. 9A. […] We hypothesize that inhibition of mitochondrial complexes I and II is the predominant mechanism for antiproliferative effects of Mito-LON on lung cancer cells.

[6] = test system: H2030BrM3 orthotopic lung adenocarcinoma in nude mice; assay: Orthotopic lung tumor mouse model; type: in vivo
Experimental: Inhibitory effects of Mito-LON in an orthotopic lung tumor mouse model. We conducted a pilot study using an orthotopic model of lung adenocarcinoma (H2030BrM3 cells) in nude mice. Cells (1×10^6 cells/50 μg of growth factor-reduced Matrigel in 50 μL of RPMI-1640) were injected into the lung. One week after injection, mice were treated with the same dose of LON or Mito-LON (7.5 μmol/kg), or vehicle (corn oil), by oral gavage 5 times/wk for 3 wks.

[7] = test system: Pancreatic cancer cells; assay: Anti-proliferative effects in pancreatic cancer cells (number of cells over time); type: cell-based, human
Experimental: Pancreatic cancer cells were treated with either LND or Mito-LND at varying concentrations and the number of cells was assayed over time.

[8] = test system: VC-induced lung tumors in A/J mice; assay: Vinyl carbamate (VC)-induced lung carcinogenesis, post-initiation protocol; type: in vivo, mouse
Excerpt: Preventive efficacy of Mito-LON on vinyl carbamate (VC)-Induced lung carcinogenesis using a post-initiation protocol. We evaluated the preventive efficacy of Mito-LON on the development of VC-induced lung tumors in A/J mice. A post-initiation protocol was used in this study by which administration of Mito-LON was initiated one week after VC. Mito-LON was given via oral gavage at a dose of 15 μmol/kg 5 days/week for 20 weeks.

[9] = molecular target: T1, mitochondrial complex II (Homo sapiens, UniProt O14521+P21912+P31040+Q99643); assay: Mitochondrial complex II activity (OCR) in permeabilized H2030BrM3 cells after 24 h pretreatment; type: cell-based
T1 construct: we measured the activity of mitochondrial complexes in H2030BrM3 cells (NSCLC cell line); endogenous in cells; host or cells: H2030BrM3
Excerpt: as §1

[10] = test system: cytosolic Prx1; assay: Redox status of cytosolic peroxiredoxin; type: cell-based, human; conditions: lung cancer cells
Excerpt: Inhibition of mitochondrial respiration results in increased O2^⋅− and other oxidants.

[11] = 7.5 μmol/kg oral gavage 5 times/wk for 3 wks, nude mice

T1 sequence (P31040 43-664): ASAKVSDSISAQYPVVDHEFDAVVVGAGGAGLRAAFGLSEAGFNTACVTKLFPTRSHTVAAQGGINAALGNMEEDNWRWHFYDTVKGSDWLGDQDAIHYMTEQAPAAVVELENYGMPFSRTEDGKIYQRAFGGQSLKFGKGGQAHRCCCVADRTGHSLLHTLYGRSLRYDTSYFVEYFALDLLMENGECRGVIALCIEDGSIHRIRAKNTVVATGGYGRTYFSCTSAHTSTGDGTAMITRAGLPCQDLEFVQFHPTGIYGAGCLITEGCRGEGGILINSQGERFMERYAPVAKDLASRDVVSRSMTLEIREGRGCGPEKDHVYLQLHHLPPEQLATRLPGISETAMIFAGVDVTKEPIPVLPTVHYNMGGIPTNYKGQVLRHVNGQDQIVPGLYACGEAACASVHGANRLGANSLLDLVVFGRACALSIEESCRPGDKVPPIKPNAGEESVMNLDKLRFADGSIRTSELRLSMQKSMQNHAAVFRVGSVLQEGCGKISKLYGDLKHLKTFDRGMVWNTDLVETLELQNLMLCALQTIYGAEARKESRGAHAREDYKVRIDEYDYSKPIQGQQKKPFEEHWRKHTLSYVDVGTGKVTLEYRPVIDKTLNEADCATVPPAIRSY
T1 sequence (P21912 29-280): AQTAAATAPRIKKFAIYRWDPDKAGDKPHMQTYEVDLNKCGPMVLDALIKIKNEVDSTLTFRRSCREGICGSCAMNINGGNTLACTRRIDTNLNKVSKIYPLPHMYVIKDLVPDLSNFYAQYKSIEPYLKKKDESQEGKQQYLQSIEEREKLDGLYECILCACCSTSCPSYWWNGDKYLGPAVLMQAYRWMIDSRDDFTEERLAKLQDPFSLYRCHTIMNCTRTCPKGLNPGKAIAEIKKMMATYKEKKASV
T1 sequence (Q99643 30-169): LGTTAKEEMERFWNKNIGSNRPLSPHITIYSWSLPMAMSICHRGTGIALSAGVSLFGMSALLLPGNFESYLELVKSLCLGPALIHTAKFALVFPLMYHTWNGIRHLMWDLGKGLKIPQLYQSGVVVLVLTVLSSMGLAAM
T1 sequence (O14521 57-159): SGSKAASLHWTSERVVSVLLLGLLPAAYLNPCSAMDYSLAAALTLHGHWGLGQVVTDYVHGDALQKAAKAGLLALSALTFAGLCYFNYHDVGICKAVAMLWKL

O=C(NCCCCCCCCCC[P+](c1ccccc1)(c1ccccc1)c1ccccc1)c1nn(Cc2ccc(Cl)cc2Cl)c2ccccc12 [Mito-LON, Mito10-lonidamine]
inhibition of brain metastasis of lung cancer cells [1]: significant efficacy in inhibiting brain metastasis
inhibition at 0.6 µM [2]: < 10%
IC50 [3]: 700 nM
caspase cleavage [4]: did not induce caspase cleavage
cleaved PARP and cytochrome c levels [4]: increased levels of cleaved PARP and cytochrome c
fold more potent than LON for complex I ([5]; 24 h pretreatment, FIG. 9B): 370 fold
Ki ([5]; FIG. 9): 1200 nM
IC50 ([5]; H2030BrM3 lung cancer cells, FIG. 9, read-out: IC50, respiratory complex I): 1200 nM
reduction of lymph node metastasis [6, 11]: > 50%
reduction of tumor progression [6, 11]: > 70%
liver histopathology (H&E sections) ([6]; 7.5 μmol/kg oral gavage, 3 wks): no histopathologic signs of toxicity
effective dose (ED) ([6]; designated from preliminary data (FIGS. 24 & 25)): 7.5 µmol/kg
IC50 ([7]; Homo sapiens, Pancreatic cancer cell, read-out: IC50, inhibiting the proliferation of cancer cells): 640 nM
fold more effective than LND in anti-proliferative effects ([7]; pancreatic cancer cells, FIG. 6): ~500 fold
inhibition of VC-induced lung tumor development, total tumor load ([8]; 15 μmol/kg oral gavage 5 days/week for 20 weeks, A/J mice): 62%
body weight changes ([8]; 15 μmol/kg oral gavage, 20 weeks): did not observe any body weight changes
fold more potent than LON for complex II ([9]; 24 h pretreatment, FIG. 9B): 144 fold
Ki ([9]; FIG. 9): 2700 nM
IC50 ([9]; H2030BrM3 lung cancer cells, FIG. 9, read-out: IC50, respiratory complex II): 2700 nM
effect on cytosolic Prx1 [10]: without significant effect
